Source: patent US20100113334A1, “METHODS FOR REDUCING OR PREVENTING TRANSMISSION OF NOSOCOMIAL PATHOGENS IN A HEALTH CARE FACILITY” (priority 2003, published 2010)
“Also recorded” adds a separate entry of the source. Like-named read-outs stand apart in the source and are kept apart here.

Legend:
Enterococcus species = test: Effect on indigenous stool microflora (Example 3), quantitative culture; assay type: in vivo, mice
[1] = test system: VRE (VRE faecium, VRE faecalis); test: In vitro activity (MIC90), internal Phase II isolates; assay type: cell-based, vancomycin-resistant Enterococcus; conditions: 235 strains, internal Phase II data
Total Enterococci = test: VRE suppression in a mouse model (Example 1), total enterococci in faeces; assay type: in vivo, mice
Excerpt: (§1) Mice were colonized with a clinical isolate VanA strain of E. faecium (VRE) isolated from a septicemic patient. A single inoculation of 5×10^8 cfu VRE by oral gavage (Day 0) was followed by treatment with vancomycin in the drinking water to maintain colonization. On day 22, each group received the same vancomycin-containing drinking water. […] The control group consisted of five mice, while the ramoplanin group consisted of four mice.

[2] = test system: clinical isolate VanA strain of E. faecium (VRE); test: VRE suppression in a mouse model (Example 1); assay type: in vivo, mice
Excerpt: as §1

[3] = test system: indigenous stool microflora; test: DGGE of PCR-amplified bacterial ribosomal RNA genes from stool (Example 3); assay type: in vivo, mice; conditions: oral ramoplanin 100 μg/mL in drinking water
[4] = Oral administration to healthy male volunteers: absorption and excretion (Example 7, 7.1); assay type: in vivo, human
Experimental: Both bioassay and HPLC-based assays to assess the absorption, distribution, metabolism, and excretion were utilized in these studies.
The predetermined dose was reconstituted in 5 mL water per vial, mixed with 50 mL of sweetened, aromatized solution, and immediately administered orally to the subjects.

[5] = test system: E. faecium C68 (VanB-type clinical VRE isolate); test: Minimum-inhibitory concentration for VRE C68; assay type: cell-based
Experimental: Pathogens Studied: E. faecium C68, a previously described VanB-type clinical VRE isolate, was used for the following murine VRE experiments (Donskey et al., J. Microbial. Meth. 1807: 1-8, 2003). […] Klebsiella pneumoniae P62 is a clinical isolate that produces an SHV type extended-spectrum β-lactamase (ESBL). Candida glabrata A239 is a clinical isolate with a fluconazole minimum-inhibitory concentration of 2 μg/mL.

total anaerobes = test: Effect on indigenous stool microflora (Example 3), quantitative culture; assay type: in vivo, mice; conditions: 100 μg/mL in drinking water, seven days
Bacillus spp. = conditions: 10 strains; cited from earlier work
Lactobacillus species = test: Effect on indigenous stool microflora (Example 3), quantitative culture; assay type: in vivo, mice
Experimental: Female CF1 mice (Harlan Sprague-Dawley, Indianapolis) weighing 25-30 g were used in these experiments. In order to minimize the risk of cross-contamination, mice were housed in individual cages with plastic filter tops. […] Quantitative cultures for facultative and aerobic gram-negative bacilli, enterococci, total anaerobes, Bacteroides species, Lactobacillus species, and Clostridium species were performed by plating serially-diluted specimens onto MacConkey agar (Difco Laboratories, Detroit), Enterococcosel agar (Becton Dickinson, Cockeysville, Md.), Brucella agar (Becton Dickinson), Bacteroides bile esculin agar, Rogosa agar, and Egg Yolk agar, respectively. For culture of anaerobes, stool samples were processed inside an anaerobic chamber (Coy Laboratories, Grass Lake, Mich.). Denaturing gradient gel electrophoresis (DGGE) of PCR-amplified bacterial ribosomal RNA genes from stool was performed as described by Donskey et al. (supra).

S. aureus (MSSA) = conditions: 140 strains; cited from earlier work
[6] = In vitro interaction with human gastro-intestinal contents
Excerpt: The in vitro interaction of ramoplanin with human gastro-intestinal contents was studied.

VRE [7] = test: Prevention of cross-transmission of VRE among mice in communal cages (Example 5); assay type: in vivo
Experimental: One set of experiments was performed to evaluate the ability of ramoplanin to prevent cross-transmission and overgrowth of VRE among mice in communal cages. High-density VRE stool colonization (˜7 log10 CFU/g) was established in 2 mice as described above. […] All mice were treated with subcutaneous clindamycin (1.4 mg) once daily for 5 days. After 9 days, all mice were separated into individual cages and supplied with regular drinking water.

VRE [8] = test: Multiple dose study in asymptomatic carriers of gastro-intestinal VRE (Example 7.2); assay type: in vivo, human; conditions: for patients with no detectable VRE: p<0.01; for patients who remained VRE free: Day 14 (seven days after cessation)
Experimental: Patients were assessed by rectal swab on Days 7, 14, and 21 to determine the presence or absence of VRE. […] All VRE isolates were tested for susceptibility to ramoplanin.

S. aureus (MRSA) = conditions: 100 strains; cited from earlier work
E. faecium = conditions: 10 strains; cited from earlier work
VRE [9] = test: Effect of prior ramoplanin treatment on establishment of VRE colonization (Example 4); assay type: in vivo, mice; conditions: 10^7 CFU VRE 4 hours or 1, 2, 4 days after 7 days of 100 μg/ml; P>0.05 vs controls
Excerpt: The density of VRE in stool was monitored before and 1 and 4 days after inoculation. Four mice were included in each treatment group.

S. pneumoniae = conditions: 20 strains; cited from earlier work
[10] = Day 22, prior to ramoplanin therapy
[11] = Day 29, completion of ramoplanin therapy
[12] = Day 36, 7 days after completion of ramoplanin therapy
[13] = single oral doses up to 1000 mg, multiple 200, 400 or 800 mg BID 10 days, bioassay and HPLC

With Ramoplanin the “Enterococcus species in stool” value (Enterococcus species; at least 11 days after discontinuation (day 18)) was “remained significantly reduced”, the “Enterococcus species in stool” value (Enterococcus species; ramoplanin treatment, P<0.001) was “significantly reduced” and the “Ramoplanin MIC90” value [1] was 0.5 µg/mL. For the same substance, the “Enterococci: Total Enterococci” value (Total Enterococci; [10]) was 9.8 log 10 cfu/g faeces, the “Enterococci: Total Enterococci” value (Total Enterococci; [11]) was under 2.4 log 10 cfu/g faeces and the “Enterococci: Total Enterococci” value (Total Enterococci; [12]) was 8.6 log 10 cfu/g faeces. The “% Mice with VRE” value [2, 10] was 100%, the “Enterococci: VRE” value [2, 10] was 9.7 log 10 cfu/g faeces and the “Enterococci: VRE” value [2, 11] was under 3.1 log 10 cfu/g faeces. For the same substance, the “% Mice with VRE” value ([2]; Day 29, completion of ramoplanin therapy (15 mg/kg/day in drinking water, with 25 mg/kg/day vancomycin)) was 0%, the “% Mice with VRE” value [2, 12] was 100% and the “Enterococci: VRE” value [2, 12] was 8.7 log 10 cfu/g faeces. For the same substance, the “VRE concentration per gram of faeces” value ([2]; after one week of treatment, all animals) was under 3.1 log units, the “stool DGGE patterns, mean similarity indices in comparison to the pre-treatment patterns” value [3] was 72% and the “absorption from the human gastro-intestinal tract” value ([4]; 200, 400 or 800 mg twice a day, ten days) was “very little, if any, is absorbed; also recorded: No absorption”. For the same substance, the “faecal concentration, average” value ([4]; Day 3, 200 mg group) was 827 µg/g, the “faecal concentration, average” value ([4]; Day 3, 400 mg group) was 1742 µg/g and the “faecal concentration, average” value ([4]; Day 3, 800 mg group) was 1901 µg/g. For the same substance, the “faecal concentration, average” value ([4]; Day 10, 200 mg group) was 949 µg/g, the “faecal concentration, average” value ([4]; Day 10, 400 mg group) was 1417 µg/g and the “faecal concentration, average” value ([4]; Day 10, 800 mg group) was 2647 µg/g. The ramoplanin in urine ([4]; day 1 or 5 and pooled urine up to 72-96 after the last dose) was “no ramoplanin was detected”, the ramoplanin in serum ([4]; days 1, 5, 10, 0.5-12 hours after the morning dose, 200, 400 or 800 mg twice a day) was “not detected” and the faecal concentrations post-treatment ([4]; four days post-treatment) was “remained detectable in some subjects”. The ramoplanin in serum/plasma [4, 13] was “not detected”, the ramoplanin in urine [4, 13] was “not detected” and the “cumulative recovery in faeces” value ([4]; up to Day 4 post-treatment) was 25 % of the administered dose. The minimum-inhibitory concentration [5] was 0.125 µg/mL, the “mean density of total anaerobes in stool” value (total anaerobes) was “not significantly affected” and the “Ramoplanin MIC90” value (Bacillus spp.) was 0.25 µg/mL. The “Lactobacillus species in stool” value (Lactobacillus species; 3 days after discontinuation (day 10)) was “returned to pre-treatment levels”, the “Lactobacillus species in stool” value (Lactobacillus species; ramoplanin treatment, P<0.001) was “markedly reduced” and the “Ramoplanin MIC90” value (S. aureus (MSSA)) was 0.5 µg/mL. For the same substance, the “binding to solid components of faeces” value [6] was “bind reversibly”, the “microbiological activity in faeces” value [6] was “microbiologically active in faeces” and the “VRE colonization in the colonized mouse added to the communal cage” value (VRE [7]; 100 μg/ml in drinking water, clindamycin-treated mice) was “rapidly inhibited”. The “VRE colonization of the other mice during ramoplanin treatment” value (VRE [7]; 100 μg/ml in drinking water, communal cage) was “none of the other mice developed detectable levels of colonization”, the “mice with VRE colonization detected after discontinuation of ramoplanin” value (VRE [7]; within 5 days after transfer to individual cages, 4 of 5 mice) was 80% and the “patients with no detectable VRE” value (VRE [8]; Day 7, 100 mg BID for seven days, 17 of 21 patients) was 81.0%. The “patients with no detectable VRE” value (VRE [8]; Day 7, 400 mg BID for seven days, 18 of 20 patients) was 90.0%, the “patients who remained VRE free” value (VRE [8]; 100 mg BID, 6 of 21 patients) was 28.6% and the “patients who remained VRE free” value (VRE [8]; 400 mg BID, 7 of 17 patients) was 41.2%. For the same substance, the “number of VRE-free patients” value (VRE [8]; Day 21) was “comparable among all treatment groups”, the “Ramoplanin MIC90” value (S. aureus (MRSA)) was 0.25 µg/mL and the “Ramoplanin MIC90” value (E. faecium) was 0.5 µg/mL. For the same substance, the ramoplanin in stool (100 μg/ml dose, 3 days after discontinuation (day 10)) was “no ramoplanin was detectable”, the “concentration in stool, range” value (100 μg/ml dose, day 7 of treatment, n=5 mice) was 156 to 312.5 µg/g and the “concentration in stool, range” value (300 μg/ml dose, day 7, n=5 mice) was 300 to 320 µg/g. The “overgrowth / establishment of VRE stool colonization after prior ramoplanin treatment” value (VRE [9]) was “did not facilitate the establishment of stool colonization; also recorded: did not develop significant overgrowth of VRE” and the “Ramoplanin MIC90” value (S. pneumoniae) was under 0.03 µg/mL.
